Data taken from article PMC5768343, “A natural inhibitor of kidney-type glutaminase: a withanolide from Physalis pubescens with potent anti-tumor activity” (Oncotarget, 2017).
Where two headings read alike, the source gives them in different places.

Tested on: human pancreatic cancer cells (SW1990)
Experiment: CCK8 cytotoxicity / proliferation assay, SW1990
Conditions: read-out: IC50 SW1990
Method: The SW1990, HT1080, and A375-S2 human tumor cell lines were obtained from ATCC (Manassas, VA, USA). […] SW1990, HT1080, and LO2 cells were cultured in DMEM medium with 10% fetal bovine serum (FBS). All of these cells were cultured at 37°C in a humidified atmosphere with 5% CO2. To estimate cell viability, cells (5000/well) were separately seeded in 96-well plates for 24 h at 37°C in a 5% CO2 incubator. […] All the experiments were performed in triplicate, and the mean absorbance values were calculated. The IC50 values of the compounds were derived from the mean OD values of the triplicate tests versus the drug concentration curves.
Cell proliferation was assessed by incubating them with Cell Counting Kit-8 reagents (Dojindo, Shanghai, China) for 24 h, 48 h, 72 h, 96 h at 37°C and measuring the absorbance at 450 nm. The experiment was performed in triplicate.

Compound	IC50 (Homo sapiens, SW1990, 48 h)	IC50 (CCK8, 48 h)
O=C(Cc1cccc(OC(F)(F)F)c1)Nc1ccc(CCCCc2nnc(NC(=O)Cc3ccccn3)s2)nn1 [CB-839, reference compound]	13.1 ± 0.57 µM	–
O=C(Cc1ccccc1)Nc1nnc(CCSCCc2nnc(NC(=O)Cc3ccccc3)s2)s1 [BPTES, reference compound]	–	35.3 ± 0.67 µM
